The source of these data is patent US9035059B2, “Nitrogen-containing condensed heterocyclic compound” (TAISHO PHARMACEUTICAL CO., LTD., priority 2011, dated 2015).

Chain of human MGAT2 (Q3SYC2 whole entry): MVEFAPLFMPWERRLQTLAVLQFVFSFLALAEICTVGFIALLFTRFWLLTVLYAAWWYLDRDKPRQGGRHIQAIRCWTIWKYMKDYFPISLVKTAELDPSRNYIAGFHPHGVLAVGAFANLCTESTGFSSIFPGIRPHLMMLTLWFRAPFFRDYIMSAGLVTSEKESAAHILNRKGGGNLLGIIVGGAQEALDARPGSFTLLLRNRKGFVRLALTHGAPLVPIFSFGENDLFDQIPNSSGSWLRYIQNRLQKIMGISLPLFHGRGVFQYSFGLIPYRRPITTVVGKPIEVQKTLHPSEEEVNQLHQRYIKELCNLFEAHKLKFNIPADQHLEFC

One assay deals with human MGAT2 (Homo sapiens (Human), UniProt Q3SYC2). The experiment in a line: Test Example 1: Test of MGAT2 inhibitory action (human MGAT2 enzyme fraction from Sf9 cells, free CoA detected by CPM fluorescence). The class given is biochemical. To be noted: human MGAT2 enzyme fraction expressed in Sf9 insect cells, 0.5 μg/ml, 2-monooleoyl glycerol 0.78 μM, oleoyl-CoA 5.3 μM, room temperature 20 min, listed as 10-3, read-out: Activity Value [nM] (IC50, concentration at which 50% of produced free CoA was inhibited). The method, then:
The MGAT2 inhibitory action of the inventive compound was measured by the methods described in Test Examples as shown below. The MGAT enzyme activity was measured based on the amount of an indicator, free Coenzyme A (CoA) which is generated by the reaction shown below, using a sulfhydryl reactive pigment (7-diethylamino-3-(4-maleimidophenyl)-4-methylcoumarin; hereinafter, sometimes abbreviated as CPM).
A test for MGAT2 inhibitory action of test compounds was conducted in accordance with a partially modified version of the method described in John F. Lockwood et al., Am. J. Physiol. Endocrinol. Metab., 2003, 285, E927.
Bac-to-Bac Baculovirus Expression System (Life Technologies Japan) was used to express human MGAT2 in insect cells (Sf9) (Life Technologies Japan). These cells were sonicated and centrifuged at 100,000 g×1 hr to give a precipitate. The precipitate was used as a human MGAT2 enzyme fraction in this assay.
This test was conducted using a black flat-bottom 96-well plate (Corning). A buffer solution with final concentrations of 5 mM magnesium chloride, 100 mM sucrose and 100 mM Tris-HCl (pH=7.5) was prepared and test compounds prepared in various concentrations using dimethyl sulfoxide were added thereto to give a final dimethyl sulfoxide concentration of 1%. The MGAT2 enzyme fraction was added thereto to give a final concentration of 0.5 μg/ml and phosphatidylcholine, 2-monooleoyl glycerol and oleoyl-CoA were added thereto to give final concentrations of 7.5 μM, 0.78 μM and 5.3 μM, respectively, before starting a reaction. The reaction was performed at room temperature for 20 min.
After 20 min, a CPM-containing solution was added thereto to give a final concentration of 5 μM before stopping the MGAT reaction. After 1 hr, a fluorescence detector (Infinite 200 from Tecan Japan) was used to measure the CPM fluorescence value of each well (excitation 380 nm, emission 460 nm).
For the compound `CCCCCCOc1ccc(NS(=O)(=O)c2ccc3c(c2)CCN(C(C)Cc2ccc(C(C)(C)C)cc2)C3)c(F)c1` (single isomer, unassigned) [Working Example 10-3], the IC50 stood at 26 nM.

Staying with this assay, now noted: human MGAT2 enzyme fraction expressed in Sf9 insect cells, 0.5 μg/ml, 2-monooleoyl glycerol 0.78 μM, oleoyl-CoA 5.3 μM, room temperature 20 min, listed as 10-4, read-out: Activity Value [nM] (IC50, concentration at which 50% of produced free CoA was inhibited).
For the compound `CCCCCCOc1ccc(NS(=O)(=O)c2ccc3c(c2)CCN(C(C)Cc2ccc(C(C)(C)C)cc2)C3)c(F)c1` (single isomer, unassigned) [Working Example 10-4], the IC50 worked out at 39 nM.

Still in this assay, the particulars now being: human MGAT2 enzyme fraction expressed in Sf9 insect cells, 0.5 μg/ml, 2-monooleoyl glycerol 0.78 μM, oleoyl-CoA 5.3 μM, room temperature 20 min, listed as 10-5, read-out: Activity Value [nM] (IC50, concentration at which 50% of produced free CoA was inhibited).
Regarding `CC(Cc1ccc(C(C)(C)C)cc1)N1CCc2cc(S(=O)(=O)Nc3ccc(CCCC4CCCC4)cc3F)ccc2C1` (single isomer, unassigned) [Working Example 10-5], the IC50 amounted to 25 nM.

The assay is the same for the next values; noted with them: human MGAT2 enzyme fraction expressed in Sf9 insect cells, 0.5 μg/ml, 2-monooleoyl glycerol 0.78 μM, oleoyl-CoA 5.3 μM, room temperature 20 min, listed as 10-6, read-out: Activity Value [nM] (IC50, concentration at which 50% of produced free CoA was inhibited).
Take `CC(Cc1ccc(C(C)(C)C)cc1)N1CCc2cc(S(=O)(=O)Nc3ccc(CCCC4CCCC4)cc3F)ccc2C1` (single isomer, unassigned) [Working Example 10-6]: the IC50 worked out at 44 nM.

Staying with this assay, now noted: human MGAT2 enzyme fraction expressed in Sf9 insect cells, 0.5 μg/ml, 2-monooleoyl glycerol 0.78 μM, oleoyl-CoA 5.3 μM, room temperature 20 min, listed as 10-7, read-out: Activity Value [nM] (IC50, concentration at which 50% of produced free CoA was inhibited).
For the compound `CCCCCCCc1ccc(NS(=O)(=O)c2ccc3c(c2)CCN(C(C)Cc2ccc(C(C)(C)C)cc2)C3)c(F)c1` (single isomer, unassigned) [Working Example 10-7], the IC50 was determined as 31 nM.

The assay is the same for the next values; noted with them: human MGAT2 enzyme fraction expressed in Sf9 insect cells, 0.5 μg/ml, 2-monooleoyl glycerol 0.78 μM, oleoyl-CoA 5.3 μM, room temperature 20 min, listed as 10-9, read-out: Activity Value [nM] (IC50, concentration at which 50% of produced free CoA was inhibited).
As for `CCCCCCCCOc1ccc(NS(=O)(=O)c2ccc3c(c2)CCN(C(C)Cc2ccc(C(C)(C)C)cc2)C3)c(F)c1` (stereo not shown) [Working Example 10-9], the IC50 was found to be 96 nM.

The same assay, now with this note: human MGAT2 enzyme fraction expressed in Sf9 insect cells, 0.5 μg/ml, 2-monooleoyl glycerol 0.78 μM, oleoyl-CoA 5.3 μM, room temperature 20 min, listed as 10-11, read-out: Activity Value [nM] (IC50, concentration at which 50% of produced free CoA was inhibited).
`CC(Cc1ccc(C(C)(C)C)cc1)N1CCc2cc(S(=O)(=O)Nc3ccc(OCCCCCc4ccccc4)cc3F)ccc2C1` (single isomer, unassigned) [Working Example 10-11]: the IC50 was 80 nM.

Still in this assay, the particulars now being: human MGAT2 enzyme fraction expressed in Sf9 insect cells, 0.5 μg/ml, 2-monooleoyl glycerol 0.78 μM, oleoyl-CoA 5.3 μM, room temperature 20 min, listed as 10-12, read-out: Activity Value [nM] (IC50, concentration at which 50% of produced free CoA was inhibited).
As to `CC(Cc1ccc(C(C)(C)C)cc1)N1CCc2cc(S(=O)(=O)Nc3ccc(OCCCCCc4ccccc4)cc3F)ccc2C1` (single isomer, unassigned) [Working Example 10-12], the IC50 is 42 nM.

Staying with this assay, now noted: human MGAT2 enzyme fraction expressed in Sf9 insect cells, 0.5 μg/ml, 2-monooleoyl glycerol 0.78 μM, oleoyl-CoA 5.3 μM, room temperature 20 min, listed as 10-13, read-out: Activity Value [nM] (IC50, concentration at which 50% of produced free CoA was inhibited).
On to `CC(Cc1ccc(C(C)(C)C)cc1)N1CCc2cc(S(=O)(=O)Nc3ccc(OCCCC4CCCCC4)cc3F)ccc2C1` (single isomer, unassigned) [Working Example 10-13], for which the IC50 is 66 nM.

The same assay, now with this note: human MGAT2 enzyme fraction expressed in Sf9 insect cells, 0.5 μg/ml, 2-monooleoyl glycerol 0.78 μM, oleoyl-CoA 5.3 μM, room temperature 20 min, listed as 10-14, read-out: Activity Value [nM] (IC50, concentration at which 50% of produced free CoA was inhibited).
Consider `CC(Cc1ccc(C(C)(C)C)cc1)N1CCc2cc(S(=O)(=O)Nc3ccc(OCCCC4CCCCC4)cc3F)ccc2C1` (single isomer, unassigned) [Working Example 10-14], for which the IC50 is 106 nM.

The same assay, now with this note: human MGAT2 enzyme fraction expressed in Sf9 insect cells, 0.5 μg/ml, 2-monooleoyl glycerol 0.78 μM, oleoyl-CoA 5.3 μM, room temperature 20 min, read-out: Activity Value [nM] (IC50, concentration at which 50% of produced free CoA was inhibited).
For the compound `CC(C)(C)c1ccc(NC(=O)N2Cc3ccc(S(=O)(=O)Nc4ccc(OCCCOc5cccc(Cl)c5)cc4F)cc3C2)cc1` [18-24], the IC50 turned out to be 62 nM.

Take `CC(C)(C)c1ccc(CCN2CCc3cc(S(=O)(=O)Nc4ccc(CCCCCc5ccccc5)cc4F)ccc3C2)cc1` [Working Example 6-28]: the IC50 was 53 nM. On to `CCCCCCCc1ccc(NS(=O)(=O)c2ccc3c(c2)CCN(CCCCCC)C3)c(F)c1` [Working Example 7-35], for which the IC50 was found to be 220 nM. The same measure, in the same setting: to `CCCCCCCc1ccc(NS(=O)(=O)c2ccc3c(c2)CCN(Cc2ccc(C(C)(C)C)nc2)C3)c(F)c1` [Working Example 6-32] belongs 31 nM; to `CCCCCCCCOc1ccc(NS(=O)(=O)c2ccc3c(c2)CCN(Cc2ccc(C(C)(C)C)nc2)C3)c(F)c1` [Working Example 6-33], 26 nM; to `CC(C)(C)c1ccc(CN2CCc3cc(S(=O)(=O)Nc4ccc(OCCC5CCOCC5)cc4F)ccc3C2)cc1` [Working Example 6-66], 203 nM. The same measure, in the same setting: to `CC(C)(C)[C@H]1CC[C@@H](C(=O)N2CCc3cc(S(=O)(=O)Nc4ccc(CCCC5CCCC5)cc4F)ccc3C2)CC1` [Working Example 1-7] belongs 292 nM; to `CCCCCCOc1ccc(NS(=O)(=O)c2ccc3c(c2)CCN(CCc2ccc(C(C)(C)C)nc2)C3)c(F)c1` [Working Example 6-44], 258 nM; to `CC(C)(C)c1ccc(CN2CCc3cc(S(=O)(=O)Nc4ccc(OCCCCCc5ccccc5)cc4F)ccc3C2)cn1` [Working Example 6-34], 36 nM. Still for that read-out and setting: under `CC(C)(C)c1ccc(NC(=O)N2Cc3ccc(S(=O)(=O)Nc4ccc(OCC5CCCCC5)cc4F)cc3C2)cc1` [18-10] stands 230 nM; under `CC(C)(C)c1ccc(NC(=O)N2Cc3ccc(S(=O)(=O)Nc4ccc(OCCC5CCCCC5)cc4F)cc3C2)cc1` [18-11], 29 nM; under `CC(C)(C)c1ccc(NC(=O)N2Cc3ccc(S(=O)(=O)Nc4ccc(OCCCC(F)(F)F)cc4F)cc3C2)cc1` [18-26], 185 nM. Take `CC(C)(C)c1ccc(CC(=O)N2CCc3cc(S(=O)(=O)Nc4ccc(OCCC5CCCCC5)cc4F)ccc3C2)cc1` [Working Example 4-1, 2-[(4-tert-Butylphenyl)acetyl]-N-[4-(2-cyclohexylethoxy)-2-fluorophenyl]-1,2,3,4-tetrahydroisoquinoline-6-sulfonamide]: the IC50 is 149 nM.

With `CC(C)(C)c1ccc(NC(=O)N2Cc3ccc(S(=O)(=O)Nc4ccc(OCCC5CCCC5)cc4F)cc3C2)cc1` [18-32], the IC50 is 58 nM. Still for that read-out and setting: to `CCCCCCOc1ccc(NS(=O)(=O)c2ccc3c(c2)CCN(C(=O)Nc2ccc(C(C)(C)C)cc2)C3)c(F)c1` [14-4] belongs 98 nM; to `CC(C)(C)c1ccc(NC(=O)N2Cc3ccc(S(=O)(=O)Nc4ccc(OCCCCOc5ccccc5)cc4F)cc3C2)cc1` [18-25], 33 nM; to `CC(C)(C)c1ccc(NC(=O)N2Cc3ccc(S(=O)(=O)Nc4ccc(OCCCCCc5ccccc5)cc4F)cc3C2)cc1` [18-16], 10 nM. Still for that read-out and setting: under `CCCCCCOc1ccc(NS(=O)(=O)c2ccc3c(c2)CCN(CCc2ncc(C(C)(C)C)cn2)C3)c(F)c1` [Working Example 9-21] stands 164 nM; under `CCCCCCCCOc1ccc(NS(=O)(=O)c2ccc3c(c2)CCN(CCc2ccc(C(C)(C)C)cc2)C3)c(F)c1` [17-2], 45 nM.

Regarding `CC(C)(C)c1ccc(NC(=O)N2Cc3ccc(S(=O)(=O)Nc4ccc(OCCc5ccccc5)cc4F)cc3C2)cc1` [18-14], the IC50 is 127 nM. Still for that read-out and setting: to `O=S(=O)(Nc1ccc(CCCC2CCCC2)cc1F)c1ccc2c(c1)CCN(CCc1ccc(OC(F)(F)F)cc1)C2` [22-2] belongs 256 nM; to `CC(C)CCCOc1ccc(NS(=O)(=O)c2ccc3c(c2)CN(C(=O)Nc2ccc(C(C)(C)C)cc2)C3)c(F)c1` [19-7], 99 nM; to `O=S(=O)(Nc1ccc(CCCC2CCCC2)cc1F)c1ccc2c(c1)CCN(Cc1cnc(C(F)(F)F)nc1)C2` [Working Example 6-78], 228 nM. As for `O=S(=O)(Nc1ccc(CCCC2CCCC2)cc1F)c1ccc2c(c1)CCN(CCCC(F)(F)F)C2` [Working Example 7-54], the IC50 amounted to 162 nM. Same read-out and setting: to `COc1cc(F)ccc1NS(=O)(=O)c1ccc2c(c1)CN(C(=O)Nc1ccc(C(C)(C)C)cc1)C2` [14-9] belongs 168 nM. The same measure, in the same setting: to `CC(C)(C)c1ccc(NC(=O)N2Cc3ccc(S(=O)(=O)Nc4ccc(OCCCc5ccccc5)cc4F)cc3C2)cc1` [18-15] belongs 56 nM. The same measure, in the same setting: to `CC(c1ccc(C(C)(C)C)nc1)N1CCc2cc(S(=O)(=O)Nc3ccc(OCCCCCc4ccccc4)cc3F)ccc2C1` (stereo not shown) [23-2] belongs 14 nM.
